Results taken from patent US9969726B2, “Metabotropic glutamate receptor negative allosteric modulators (NAMS) and uses thereof” (Sanford-Burnham Medical Research Institute, priority 2014, dated 2018).
Where two headings read alike, the source gives them in different places.

Legend:
[1] = biological target: rat mGlu2 receptor (Rattus norvegicus (Rat), UniProt P31421); experiment: mGlu2 in vitro GIRK thallium flux assay; format: cell-based; conditions: NAM, EC80 glutamate, HEK-293 GIRK cells
Description: (§1) All cell culture reagents were purchased from Invitrogen Corp. (Carlsbad, Calif.) unless otherwise noted. Compound activity at the group II (mGlu2 and mGlu3) mGlus was assessed using thallium flux through GIRK channels. Briefly, cells were plated into 384-well, black-walled, clear-bottomed poly-D-lysine-coated plates at a density of 15,000 cells/20 μL/well in DMEM containing 10% dialyzed FBS, 20 mM HEPES, and 100 units/mL penicillin/streptomycin (assay media). Plated cells were incubated overnight at 37° C. in the presence of 5% CO2. […] Cells were incubated for 1 h at room temperature, and the dye exchanged to assay buffer using an ELX405, leaving 20 μL/well. Test compounds were diluted to 2 times their final desired concentration in assay buffer (0.3% DMSO final concentration). […] Cell plates and compound plates were loaded onto a kinetic imaging plate reader (FDSS 6000 or 7000; Hamamatsu Corporation, Bridgewater, N.J.). Appropriate baseline readings were taken (10 images at 1 Hz; excitation, 470±20 nm; emission, 540±30 nm) and test compounds were added in a 20 μL volume and incubated for either 2.5 min or 60 min as indicated before the addition of 10 μL of thallium buffer with or without agonist. After the addition of agonist, data were collected for approximately an additional 2.5 min. Data were analyzed using Excel (Microsoft Corp, Redmond, Wash.). The slope of the fluorescence increase beginning 5 s after thallium/agonist addition and ending 15 s after thallium/agonist addition was calculated, corrected to vehicle and maximal agonist control slope values, and plotted in using either XLfit (ID Business Solutions Ltd) or Prism software (GraphPad Software, San Diego, Calif.) to generate concentration-response curves. Potencies were calculated from fits using a four-point parameter logistic equation. For concentration-response curve experiments, compounds were serially diluted 1:3 into 10 point concentration response curves and were transferred to daughter plates using an Echo acoustic plate reformatter (Labcyte, Sunnyvale, Calif.). Test compounds were applied and followed by EC80 concentrations of glutamate.

[2] = biological target: rat mGlu3 receptor (Rattus norvegicus (Rat), UniProt P31422); experiment: mGlu3 in vitro GIRK thallium flux assay; format: cell-based; conditions: NAM; 2.5 min compound incubation; EC80 glutamate; HEK-293 GIRK cells
Chain of rat mGlu3 receptor (P31422 23-879): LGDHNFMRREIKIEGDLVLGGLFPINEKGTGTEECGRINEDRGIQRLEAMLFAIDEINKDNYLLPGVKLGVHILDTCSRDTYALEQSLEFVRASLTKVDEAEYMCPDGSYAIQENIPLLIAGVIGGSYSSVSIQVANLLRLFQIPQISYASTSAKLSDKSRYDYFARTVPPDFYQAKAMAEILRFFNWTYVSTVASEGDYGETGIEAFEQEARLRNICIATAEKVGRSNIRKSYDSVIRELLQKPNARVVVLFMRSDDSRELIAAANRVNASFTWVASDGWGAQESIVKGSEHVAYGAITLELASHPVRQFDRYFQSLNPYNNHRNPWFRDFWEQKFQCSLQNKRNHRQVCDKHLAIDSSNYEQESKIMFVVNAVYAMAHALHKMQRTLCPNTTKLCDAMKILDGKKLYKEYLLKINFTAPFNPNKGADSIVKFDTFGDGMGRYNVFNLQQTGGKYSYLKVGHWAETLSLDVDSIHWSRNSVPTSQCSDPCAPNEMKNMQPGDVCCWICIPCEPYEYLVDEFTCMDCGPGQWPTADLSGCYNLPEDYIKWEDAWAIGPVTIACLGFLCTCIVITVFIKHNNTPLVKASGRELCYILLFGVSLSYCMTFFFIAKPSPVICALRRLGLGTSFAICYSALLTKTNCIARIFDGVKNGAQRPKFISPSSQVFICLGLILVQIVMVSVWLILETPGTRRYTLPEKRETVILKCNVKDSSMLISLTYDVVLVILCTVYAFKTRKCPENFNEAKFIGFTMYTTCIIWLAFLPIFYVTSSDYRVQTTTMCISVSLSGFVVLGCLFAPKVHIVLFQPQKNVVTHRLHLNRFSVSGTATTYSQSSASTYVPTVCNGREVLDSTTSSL
Description: as §1

[3] = 2.5 min compound incubation, read-out: mGlu2 EC50 (μM) (2.5 min)
[4] = read-out: mGlu2 EC50 (μM) (60 min), 60 min compound incubation
[5] = mGlu2 EC50 (μM) (60 min), 60 min compound incubation

Chain of rat mGlu2 receptor (P31421 19-872): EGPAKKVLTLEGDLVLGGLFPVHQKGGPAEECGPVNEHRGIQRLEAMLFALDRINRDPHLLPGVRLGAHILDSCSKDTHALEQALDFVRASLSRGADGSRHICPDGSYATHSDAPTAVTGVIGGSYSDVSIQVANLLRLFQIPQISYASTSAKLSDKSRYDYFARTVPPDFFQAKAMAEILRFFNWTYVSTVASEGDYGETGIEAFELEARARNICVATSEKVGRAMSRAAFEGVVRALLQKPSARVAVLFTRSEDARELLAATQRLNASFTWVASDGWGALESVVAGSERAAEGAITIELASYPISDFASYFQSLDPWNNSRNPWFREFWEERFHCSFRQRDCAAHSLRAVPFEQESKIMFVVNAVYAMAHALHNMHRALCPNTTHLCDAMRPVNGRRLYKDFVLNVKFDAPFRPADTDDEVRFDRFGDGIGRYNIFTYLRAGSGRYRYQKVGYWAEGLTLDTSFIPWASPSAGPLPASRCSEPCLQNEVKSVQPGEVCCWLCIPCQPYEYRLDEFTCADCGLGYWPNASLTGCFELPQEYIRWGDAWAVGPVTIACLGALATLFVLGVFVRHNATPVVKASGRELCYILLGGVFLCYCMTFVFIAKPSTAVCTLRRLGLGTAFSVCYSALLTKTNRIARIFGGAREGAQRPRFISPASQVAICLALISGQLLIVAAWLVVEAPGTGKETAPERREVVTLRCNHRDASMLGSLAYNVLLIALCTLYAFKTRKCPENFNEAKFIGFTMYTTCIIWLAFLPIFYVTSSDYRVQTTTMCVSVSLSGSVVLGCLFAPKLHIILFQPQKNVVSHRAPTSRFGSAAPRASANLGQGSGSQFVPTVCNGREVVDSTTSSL

SMILES | EC50 [1, 3] [µM] | EC50 [1, 4] [µM] | EC50 [2] [µM] | EC50 [1, 5] [µM]
c1ccc(-c2nc(-c3cccc(-c4cccc(-c5nn[nH]n5)c4)c3)cs2)cc1 [Example 37, 4-(3′-(2H-Tetrazol-5-yl)biphenyl-3-yl)-2-phenylthiazole] | 2.98 | 1.72 | > 10 | 
O=C(O)c1cccc(-c2cccc(-c3nsc(-c4ccccc4)n3)c2)c1 [Example 39, 3′-(5-Phenyl-1,2,4-thiadiazol-3-yl)biphenyl-3-carboxylic Acid] | 0.32 |  | 2.28 | 0.05
O=C(O)c1cc(F)cc(-c2cccc(-c3nsc(-c4ccccc4)n3)c2)c1 [Example 40, 5-Fluoro-3′-(5-phenyl-1,2,4-thiadiazol-3-yl)biphenyl-3-carboxylic Acid] | 0.4 |  | 2.78 | 0.1
O=C(O)c1ccc(F)c(-c2cccc(-c3nsc(-c4ccccc4)n3)c2)c1 [Example 41, 6-Fluoro-3′-(5-phenyl-1,2,4-thiadiazol-3-yl)biphenyl-3-carboxylic Acid] | 0.89 |  | > 10 | 0.11
O=C(O)c1cc(-c2cccc(-c3nsc(-c4ccoc4)n3)c2)ccc1F [Example 42, 4-Fluoro-3′-(5-(furan-3-yl)-1,2,4-thiadiazol-3-yl)biphenyl-3-carboxylic Acid] | 3.63 |  | > 10 | 3.71
O=C(O)c1cccc(-c2cccc(-c3cc(-c4ccccc4)sn3)c2)c1 [Example 44, 3′-(5-Phenylisothiazol-3-yl)-[1,1′-biphenyl]-3-carboxylic Acid] | 0.68 | 0.18 | > 10 | 
O=C(O)c1cc(-c2cccc(-c3csc(-c4ccccc4)c3)c2)ccc1F [Example 45, 4-Fluoro-3′-(5-phenylthiophen-3-yl)-[1,1′-biphenyl]-3-carboxylic Acid] | > 10 |  | > 10 | > 10
O=C(O)c1cccc(-c2cccc(-c3coc(-c4ccccc4)c3)c2)c1 [Example 46, 3′-(5-phenylfuran-3-yl)biphenyl-3-carboxylic Acid] | > 10 |  | > 30 | > 10
O=C(O)c1cccc(-c2cccc(-c3coc(-c4ccccc4)n3)c2)c1 [Example 47, 3′-(2-Phenyloxazol-4-yl)-[1,1′-biphenyl]-3-carboxylic Acid] | > 10 |  | > 30 | > 10
O=C(O)c1cccc(-c2cccc(-c3noc(-c4ccccc4)n3)c2)c1 [Example 48, 3′-(5-Phenyl-1,2,4-oxadiazol-3-yl)-[1,1′-biphenyl]-3-carboxylic Acid] | 1.33 |  | > 10 | 0.79
O=C(O)c1cccc(-c2cccc(-c3nc(-c4ccccc4)n(-c4ccccc4)n3)c2)c1 [Example 49A, 3′-(1,5-Diphenyl-1H-1,2,4-triazol-3-yl)-[1,1′-biphenyl]-3-carboxylic Acid] | > 10 |  | 1.36 | > 10
Cn1nc(-c2cccc(-c3cccc(C(=O)O)c3)c2)nc1-c1ccccc1 [Example 50, 3′-(1-Methyl-5-phenyl-1H-1,2,4-triazol-3-yl)-[1,1′-biphenyl]-3-carboxylic Acid] | 0.59 |  | > 10 | 1.48
O=C(O)c1cc(-c2cccc(-c3nc(-c4ccccc4)n(-c4ccccc4)n3)c2)ccc1F [Example 51, 3′-(1,5-Diphenyl-1H-1,2,4-triazol-3-yl)-4-fluoro-[1,1′-biphenyl]-3-carboxylic acid] | > 10 |  | 5.8 | > 10
O=C(O)c1cc(F)cc(-c2cccc(-c3nc(-c4ccccc4)n(-c4ccccc4)n3)c2)c1 [Example 52, 3′-(1,5-Diphenyl-1H-1,2,4-triazol-3-yl)-5-fluorobiphenyl-3-carboxylic Acid] | > 10 |  | 3.11 | > 10
O=C(O)c1cccc(-c2cccc(-c3nc(-c4cccs4)n(-c4ccccc4)n3)c2)c1 [Example 53, 3′-(1-Phenyl-5-(thiophen-2-yl)-1H-1,2,4-triazol-3-yl)-[1,1′-biphenyl]-3-carboxylic Acid] | > 10 |  | 4.29 | 3.67
O=C(O)c1cccc(-c2cccc(-c3nc(-c4ccccc4)n(Cc4ccccc4)n3)c2)c1 [Example 54, 3′-(1-Benzyl-5-phenyl-1H-1,2,4-triazol-3-yl)-[1,1′-biphenyl]-3-carboxylic Acid] | > 10 |  | 3.9 | 2.71
COc1ccc(-n2nc(-c3cccc(-c4cccc(C(=O)O)c4)c3)nc2-c2ccccc2)cc1 [Example 55, 3′-(1-(4-Methoxyphenyl)-5-phenyl-1H-1,2,4-triazol-3-yl)-[1,1′-biphenyl]-3-carboxylic Acid] | > 10 |  | 2.96 | 6.58
O=C(O)c1cccc(-c2cccc(-c3nc(-c4ccccc4)n(-c4cccc(F)c4)n3)c2)c1 [Example 56, 3′-(1-(3-Fluorophenyl)-5-phenyl-1H-1,2,4-triazol-3-yl)-[1,1′-biphenyl]-3-carboxylic Acid] | 3.22 |  | > 10 | > 10
O=C(O)c1cccc(-c2cccc(-c3nc(-c4ccccc4)n(-c4cccc5ccccc45)n3)c2)c1 [Example 57, 3′-(1-(Naphthalen-1-yl)-5-phenyl-1H-1,2,4-triazol-3-yl)-[1,1′-biphenyl]-3-carboxylic Acid] | > 10 |  | > 10 | > 10
O=C(O)c1cccc(-c2cccc(-c3nc(-c4ccc(C(F)(F)F)nc4)n(-c4ccccc4)n3)c2)c1 [Example 58, 3′-(1-Phenyl-5-(6-(trifluoromethyl)pyridin-3-yl)-1H-1,2,4-triazol-3-yl)-[1,1′-biphenyl]-3-carboxylic Acid] | > 10 |  | 5.56 | > 10
O=C(O)c1cccc(-c2cccc(-c3nc(-c4ccoc4)n(-c4ccccc4)n3)c2)c1 [Example 59, 3′-(5-(Furan-3-yl)-1-phenyl-1H-1,2,4-triazol-3-yl)-[1,1′-biphenyl]-3-carboxylic acid] | > 10 |  | > 10 | 3.78
O=C(O)c1ccc(-c2cccc(-c3nc(-c4ccccc4)n(-c4ccccc4)n3)c2)cc1 [Example 60, 3′-(1,5-Diphenyl-1H-1,2,4-triazol-3-yl)-[1,1′-biphenyl]-4-carboxylic Acid] | > 10 |  | 5.3 | > 10
O=C(O)c1ccccc1-c1cccc(-c2nc(-c3ccccc3)n(-c3ccccc3)n2)c1 [Example 61, 3′-(1,5-Diphenyl-1H-1,2,4-triazol-3-yl)-[1,1′-biphenyl]-2-carboxylic Acid] | > 30 | > 30 | > 10 | 
O=C(O)c1ccoc1-c1cccc(-c2nc(-c3ccccc3)n(-c3ccccc3)n2)c1 [Example 62, 2-(3-(1,5-Diphenyl-1H-1,2,4-triazol-3-yl)phenyl)furan-3-carboxylic Acid] | > 10 |  | 0.21 | > 30
O=C(O)c1ccc(F)c(-c2cccc(-c3nc(-c4ccccc4)n(-c4ccccc4)n3)c2)c1 [Example 63, 3′-(1,5-Diphenyl-1H-1,2,4-triazol-3-yl)-6-fluoro-[1,1′-biphenyl]-3-carboxylic acid] | > 10 |  | 4.45 | > 10
CC(C)n1nc(-c2cccc(-c3cccc(C(=O)O)c3)c2)nc1-c1ccccc1 [Example 64, 3′-(1-Isopropyl-5-phenyl-1H-1,2,4-triazol-3-yl)-[1,1′-biphenyl]-3-carboxylic acid] | > 10 |  | > 10 | > 30
O=C(O)c1cccc(-c2cccc(-c3n[nH]c(-c4ccccc4)n3)c2)c1 [Example 65, 3′-(5-Phenyl-1H-1,2,4-triazol-3-yl)-[1,1′-biphenyl]-3-carboxylic Acid] | > 10 |  | > 30 | > 30
O=C(O)c1cccc(-c2cccc(-c3nc(-c4ccccc4)nn3-c3ccccc3)c2)c1 [Example 66, 3′-(1,3-Diphenyl-1H-1,2,4-triazol-5-yl)-[1,1′-biphenyl]-3-carboxylic Acid] | > 10 | > 10 | > 10 | 
O=C(O)c1cccc(-c2cccc(-c3cn(-c4ccccc4)c(-c4ccccc4)n3)c2)c1 [Example 67, 3′-(1,2-Diphenyl-1H-imidazol-4-yl)-[1,1′-biphenyl]-3-carboxylic Acid] | > 10 | > 10 | > 10 | 
